≈ marks a conversion by molar mass, not a printed value. Entries after “also recorded” stand apart in the source; their conditions may differ.
Columns and labels:
human IRAP = molecular target: T1, human IRAP (Homo sapiens, UniProt Q9UIQ6); assay: Inhibition of human membrane-bound IRAP overexpressed in HEK293 cells (hIRAP); assay type: biochemical
T1 construct: expressed in transfected cells
Method: (§1) Human IRAP and APN were overexpressed, as previously described.
(§2) Membrane preparations from frozen CHO cells and HEK293T cells with overexpressed IRAP and APN were prepared and handled as previously described.
(§3) Details for the assay used to evaluate the inhibitory activity of the compounds have already been published.

IRAP [1] = tested on: IRAP; parameters: method as in PMID 27078680; details: jump-dilution experiments; cited from earlier work
[2] = molecular target: T2, human recombinant soluble IRAP (sIRAP) (Homo sapiens, UniProt Q9UIQ6); assay: Inhibition of human recombinant soluble IRAP (sIRAP); assay type: biochemical; details: human recombinant soluble enzyme
T2 construct: as well as the recombinant soluble enzyme (sIRAP)
From the text: as §3

IRAP [3] = molecular target: T3, IRAP (Cricetulus griseus, UniProt A0A8C2M8D5); assay: Mechanism of action enzyme kinetics with variable L-Leu-pNA substrate on IRAP from CHO cell membranes; assay type: biochemical, Chinese hamster; details: Vmax decreases, Km constant
T3 sequence (A0A8C2M8D5 1-1025): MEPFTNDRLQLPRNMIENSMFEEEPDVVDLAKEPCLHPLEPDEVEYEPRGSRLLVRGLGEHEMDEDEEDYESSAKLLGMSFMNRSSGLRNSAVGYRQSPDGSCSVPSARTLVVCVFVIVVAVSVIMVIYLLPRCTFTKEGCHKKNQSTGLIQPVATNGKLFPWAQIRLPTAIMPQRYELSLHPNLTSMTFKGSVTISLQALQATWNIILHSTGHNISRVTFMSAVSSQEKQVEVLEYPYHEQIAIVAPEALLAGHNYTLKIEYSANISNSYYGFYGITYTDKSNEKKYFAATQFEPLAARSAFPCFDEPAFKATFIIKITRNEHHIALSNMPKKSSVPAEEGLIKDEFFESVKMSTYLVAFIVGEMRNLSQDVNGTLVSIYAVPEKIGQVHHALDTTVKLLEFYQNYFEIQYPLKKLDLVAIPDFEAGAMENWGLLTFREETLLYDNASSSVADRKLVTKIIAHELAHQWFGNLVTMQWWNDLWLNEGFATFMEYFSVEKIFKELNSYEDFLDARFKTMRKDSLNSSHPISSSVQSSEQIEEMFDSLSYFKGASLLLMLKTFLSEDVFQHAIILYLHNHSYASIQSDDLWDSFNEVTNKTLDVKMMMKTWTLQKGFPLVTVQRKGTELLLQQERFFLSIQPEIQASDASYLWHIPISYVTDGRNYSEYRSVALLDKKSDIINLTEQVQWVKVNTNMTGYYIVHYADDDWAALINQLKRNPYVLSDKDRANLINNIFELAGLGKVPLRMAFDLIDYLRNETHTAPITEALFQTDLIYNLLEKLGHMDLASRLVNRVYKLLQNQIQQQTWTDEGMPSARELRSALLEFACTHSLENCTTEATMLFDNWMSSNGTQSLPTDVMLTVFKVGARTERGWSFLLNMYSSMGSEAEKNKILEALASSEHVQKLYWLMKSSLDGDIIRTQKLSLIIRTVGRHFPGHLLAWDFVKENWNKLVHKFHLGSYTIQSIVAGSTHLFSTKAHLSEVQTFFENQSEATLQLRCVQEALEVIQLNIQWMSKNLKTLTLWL
Method: The design of the enzyme kinetics experiments followed that of the inhibitory experiments, except for the substrate concentrations that were variable at 0.1, 0.2, 0.3, 0.4, 0.8, 1.6 and 2.4 mM. The serial dilution of the compound stock solution was reproduced across all eight rows of a set of four 96-well plates. Four technical replicates were obtained at each substrate concentration by adding the same substrate solution to the top or bottom four rows of each 96-well plate, i.e., a total of four plates were used for this experiment, including a no-substrate control. The absorbance of these plates was then measured every 10 min to follow the enzymatic reaction over time. Data obtained in the presence of 100 µM inhibitor were used to define maximal IRAP inhibition under these assay conditions, i.e., this slope was subtracted from those obtained at lower inhibitor concentrations. Data were fitted to a model for non-competitive inhibition within GraphPad and compared with models for competitive and uncompetitive binding. The non-competitive inhibition model explains the experimental data with a probability of 99.99%, compared to 0.01% and <0.01% for competitive and uncompetitive inhibition, respectively. […]

[4] = molecular target: T4, human aminopeptidase N (APN) (Homo sapiens, UniProt P15144); assay: Inhibition of human aminopeptidase N overexpressed in HEK293 cells; assay type: biochemical; details: for APN IC50 (µM)/pIC50: human aminopeptidase N overexpressed in HEK293 cells
T4 construct: expressed in transfected cells; host or cells: HEK293 / HEK293T cells, membrane preparations
Method: as §1, §2, §3

[5] = LogD7.4 (DMPK Wave 1 panel); assay type: physicochemical; details: pH 7.4; average ± SD of three test occasions
Method: (§4) Pre-clinical profiling of the compounds was performed at AstraZeneca R&D in Gothenburg, Sweden, applying an integrated panel of assays referred to as the DMPK Wave 1 panel.

[6] = Human liver microsome intrinsic clearance; assay type: in vitro ADME; details: human liver microsomes; for microsomal CLint: read-out: HLM Clint; for half-life: read-out: HLM t ½
Method: as §4

[7] = Rat hepatocytes intrinsic clearance; assay type: in vitro ADME; details: for hepatocyte CLint: read-out: Rat hep. Clint; for half-life: read-out: Rat hep. t ½
Method: as §4

[8] = Human plasma protein binding; assay type: in vitro ADME; details: read-out: PPB
Method: as §4

Human plasma stability = assay type: in vitro ADME; details: after 18 h incubation
Method: as §4

[9] = Dried DMSO solubility in aqueous phosphate buffer pH 7.4; assay type: physicochemical; details: thermodynamic from solid; aqueous phosphate buffer (PBS) at pH 7.4; read-out: Sol. (dried DMSO solubility)
Method: as §4

T4 sequence (P15144 whole entry): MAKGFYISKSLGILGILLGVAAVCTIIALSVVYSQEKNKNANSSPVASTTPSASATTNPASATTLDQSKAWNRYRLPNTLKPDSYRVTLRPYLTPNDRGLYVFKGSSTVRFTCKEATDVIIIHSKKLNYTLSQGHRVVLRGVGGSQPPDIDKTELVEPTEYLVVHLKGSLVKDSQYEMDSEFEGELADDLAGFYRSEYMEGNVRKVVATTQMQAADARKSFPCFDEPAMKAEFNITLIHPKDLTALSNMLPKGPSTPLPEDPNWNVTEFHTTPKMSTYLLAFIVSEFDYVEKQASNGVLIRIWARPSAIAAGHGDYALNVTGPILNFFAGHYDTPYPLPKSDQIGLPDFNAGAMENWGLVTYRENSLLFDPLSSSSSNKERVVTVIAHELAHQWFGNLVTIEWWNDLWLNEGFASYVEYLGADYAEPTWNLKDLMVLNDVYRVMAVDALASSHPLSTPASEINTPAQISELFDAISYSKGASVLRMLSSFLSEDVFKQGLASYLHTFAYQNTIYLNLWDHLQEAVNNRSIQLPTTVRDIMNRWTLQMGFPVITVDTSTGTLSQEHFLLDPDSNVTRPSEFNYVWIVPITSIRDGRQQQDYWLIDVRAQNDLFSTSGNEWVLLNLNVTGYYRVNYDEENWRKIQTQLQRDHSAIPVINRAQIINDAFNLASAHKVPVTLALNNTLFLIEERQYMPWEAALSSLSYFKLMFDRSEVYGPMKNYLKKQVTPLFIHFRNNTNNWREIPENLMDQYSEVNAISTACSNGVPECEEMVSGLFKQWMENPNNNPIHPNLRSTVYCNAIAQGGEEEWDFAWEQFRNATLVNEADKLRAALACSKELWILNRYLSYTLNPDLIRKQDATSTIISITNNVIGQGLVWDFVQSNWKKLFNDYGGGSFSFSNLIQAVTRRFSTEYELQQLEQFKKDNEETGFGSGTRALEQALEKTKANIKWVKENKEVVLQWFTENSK
T1 sequence (Q9UIQ6 whole entry): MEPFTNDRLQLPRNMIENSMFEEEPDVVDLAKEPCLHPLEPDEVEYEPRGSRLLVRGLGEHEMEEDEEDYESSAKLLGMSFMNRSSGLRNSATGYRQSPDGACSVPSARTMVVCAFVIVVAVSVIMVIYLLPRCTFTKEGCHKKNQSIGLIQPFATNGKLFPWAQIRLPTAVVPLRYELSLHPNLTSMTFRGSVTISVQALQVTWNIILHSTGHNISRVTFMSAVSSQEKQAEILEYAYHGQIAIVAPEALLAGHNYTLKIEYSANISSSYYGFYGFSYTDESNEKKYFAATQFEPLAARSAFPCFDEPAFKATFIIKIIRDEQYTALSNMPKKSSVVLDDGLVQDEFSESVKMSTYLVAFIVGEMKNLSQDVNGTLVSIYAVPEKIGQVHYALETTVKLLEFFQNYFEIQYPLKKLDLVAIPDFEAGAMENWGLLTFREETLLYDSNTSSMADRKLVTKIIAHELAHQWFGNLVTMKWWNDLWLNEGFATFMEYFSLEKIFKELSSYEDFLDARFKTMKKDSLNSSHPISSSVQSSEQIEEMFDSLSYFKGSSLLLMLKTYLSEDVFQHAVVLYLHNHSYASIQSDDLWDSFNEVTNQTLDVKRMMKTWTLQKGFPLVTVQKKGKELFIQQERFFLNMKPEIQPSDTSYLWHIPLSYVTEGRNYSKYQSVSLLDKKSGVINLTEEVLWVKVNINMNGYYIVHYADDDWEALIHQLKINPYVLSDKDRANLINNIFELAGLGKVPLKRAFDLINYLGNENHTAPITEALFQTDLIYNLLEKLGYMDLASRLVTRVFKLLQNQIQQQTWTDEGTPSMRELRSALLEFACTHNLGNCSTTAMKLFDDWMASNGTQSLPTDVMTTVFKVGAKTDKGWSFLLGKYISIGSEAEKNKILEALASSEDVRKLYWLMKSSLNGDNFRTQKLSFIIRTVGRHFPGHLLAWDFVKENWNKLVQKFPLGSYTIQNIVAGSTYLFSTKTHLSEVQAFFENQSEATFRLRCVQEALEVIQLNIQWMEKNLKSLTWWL
T2 sequence (Q9UIQ6 155-1025 limits assumed): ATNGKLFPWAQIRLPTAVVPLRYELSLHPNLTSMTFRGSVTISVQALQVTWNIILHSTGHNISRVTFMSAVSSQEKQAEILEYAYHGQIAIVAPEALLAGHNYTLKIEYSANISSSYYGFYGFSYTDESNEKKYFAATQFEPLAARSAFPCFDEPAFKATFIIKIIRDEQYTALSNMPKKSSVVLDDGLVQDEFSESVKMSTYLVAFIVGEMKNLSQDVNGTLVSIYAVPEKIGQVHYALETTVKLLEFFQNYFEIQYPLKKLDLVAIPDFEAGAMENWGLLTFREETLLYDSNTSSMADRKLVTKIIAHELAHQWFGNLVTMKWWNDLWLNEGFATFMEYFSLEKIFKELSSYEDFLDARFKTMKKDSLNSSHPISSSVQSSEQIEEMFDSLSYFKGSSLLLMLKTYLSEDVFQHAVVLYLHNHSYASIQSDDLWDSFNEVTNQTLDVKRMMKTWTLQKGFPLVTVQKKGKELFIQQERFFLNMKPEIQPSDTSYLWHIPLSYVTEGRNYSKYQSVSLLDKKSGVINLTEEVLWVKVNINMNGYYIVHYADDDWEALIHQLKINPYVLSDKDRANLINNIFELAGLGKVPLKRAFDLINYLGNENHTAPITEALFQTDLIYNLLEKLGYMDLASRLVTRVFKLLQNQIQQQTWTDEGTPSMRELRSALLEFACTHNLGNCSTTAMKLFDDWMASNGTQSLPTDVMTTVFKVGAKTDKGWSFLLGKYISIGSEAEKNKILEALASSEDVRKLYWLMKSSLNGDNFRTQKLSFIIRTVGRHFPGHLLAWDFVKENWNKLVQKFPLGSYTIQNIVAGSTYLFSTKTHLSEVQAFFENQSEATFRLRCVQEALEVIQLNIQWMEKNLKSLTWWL

Row | Structure (SMILES) | IC50 (human IRAP) [nM] | reversibility of binding to IRAP (IRAP [1]) | IC50 [2] [nM] | mode of inhibition versus substrate (IRAP [3]) | impact on the activity of human APN ([4]; at concentrations up to 125 µM) | APN IC50 (µM)/pIC50 [4] | logD [5] | microsomal CLint [6] [µL/min/mg] | half-life [6] [min] | hepatocyte CLint [7] [µL/min/1e6 cells] | half-life [7] [min] | fraction unbound [8] | Plasma Stab (Human plasma stability) [% compound remaining] | solubility [9] [µM]
1 | COc1ccccc1-c1nc(C2CCCN2C(=O)N[C@@H](C)c2ccccc2)n2ccccc12 (mixture of isomers) [Compound 6a, 2-(1-(2-Methoxyphenyl)imidazo [1,5-a]pyridin-3-yl)-N-((S)-1-phenylethyl)pyrrolidine-1-carboxamide] | 1300 | binds reversibly | 1000 | non-competitive binding with the substrate | no impact | neither compound showed any inhibitory activity; also recorded: inactive (2) | – | – | – | – | – | – | – | –
2 | COc1ccccc1-c1nc(C2CCCN2C(=O)N[C@H](C)c2ccccc2)n2ccccc12 (mixture of isomers) [Compound 6b, 2-(1-(2-Methoxyphenyl)imidazo [1,5-a]pyridin-3-yl)-N-((R)-1-phenylethyl)pyrrolidine-1-carboxamide] | 50000 | – | – | – | – | neither compound showed any inhibitory activity; also recorded: inactive (2) | – | – | – | – | – | – | – | –
3 | COc1ccccc1-c1nc(CN(C)C(=O)N[C@@H](C)c2ccccc2)n2ccccc12 [Compound 6m, (S)-1-((1-(2-Methoxyphenyl)imidazo [1,5-a]pyridin-3-yl)methyl)-1-methyl-3-(1-phenylethyl)urea] | – | – | – | – | – | – | 2.9 ± 0.6 | > 300 | < 2.3 | > 300 | < 2.3 | 0.006 ± 0.001 | 99 ± 5 | 55 ± 12 (≈ 22.8 µg/mL)
4 | COc1ccccc1-c1nc(C2CCCN2C(=S)NCc2ccccc2)n2ccccc12 (stereo not drawn) [Compound 6v, N-Benzyl-2-(1-(2-methoxyphenyl)imidazo [1,5-a]pyridin-3-yl)pyrrolidine-1-carbothioamide] | – | – | – | – | – | – | 3.3 ± 0.4 | > 300 | < 2.3 | > 300 | < 2.3 | 0.007 ± 0.001 | 76 ± 6 | 0.6 to 2 (≈ 0.266 to 0.885 µg/mL)
